Key:
[1] = Dynamic Vapor Sorption (DVS) / hygroscopicity; assay type: physicochemical; conditions: for Change In Mass (%) - ref, Desorption / Change In Mass (%) - ref, Sorption / Change In Mass (%) - ref, Hysteresis: 25° C.
Procedure: Details of DVS method used in the tests are mentioned below: • Samples (about 10 mg) were transferred into a DVS pan, the weight changes were recorded with respect to the atmospheric humidity at 25° C.
The following parameters were used: • Equilibrium: dm/dt: 0.01%/min. (for min: 10 min and max: 180 min). • Drying: 0% RH for 120 min. • RH (%) measurement step: 5%, • RH (%) measurement step scope: 0˜95˜0%.

[2] = Physical stability on storage, XRPD pattern; assay type: physicochemical; conditions: for physical stability: 25° C. closed, 25° C./60% RH and 40° C. closed, three months (not 40° C./75% RH)
Procedure: 3.1 XRPD Method • Details of XRPD method used in the tests are mentioned below: • X-ray Generator: Cu, Kα (λ=1.54179 Å). • Tube Voltage: 40 kV; Current: 40 mA. • Scanning Scope: 4 to 40 deg; • Sample rotation speed: 15 rpm. • Scanning rate: 10 deg/min
About 40 mg of scaled up amorphous sample prepared by solvent-anti-solvent precipitation (addition of water to acetone) as described in Example 6 was weighed into glass vials. The vials were stored under different testing conditions (25° C. closed vial, 25° C./60% RH, 40° C. closed vial and 40° C./75% RH) 1 week, 2 weeks, 4 weeks, and 3 months. The original scaled up amorphous form was used as a control. XRPD and mDSC were checked at the end of each time point.

[3] = DVS Cycle 1, target 10.0 % P/Po
[4] = DVS Cycle 1, target 15.0 % P/Po
[5] = DVS Cycle 1, target 20.0 % P/Po
[6] = DVS Cycle 1, target 25.0 % P/Po
[7] = DVS Cycle 1, target 30.0 % P/Po
[8] = DVS Cycle 1, target 35.0 % P/Po
[9] = DVS Cycle 1, target 40.0 % P/Po
[10] = DVS Cycle 1, target 45.0 % P/Po
[11] = DVS Cycle 1, target 50.0 % P/Po
[12] = DVS Cycle 1, target 55.0 % P/Po
[13] = DVS Cycle 1, target 60.0 % P/Po
[14] = DVS Cycle 1, target 65.0 % P/Po
[15] = DVS Cycle 1, target 70.0 % P/Po
[16] = DVS Cycle 1, target 75.0 % P/Po
[17] = DVS Cycle 1, target 80.0 % P/Po
[18] = DVS Cycle 1, target 85.0 % P/Po
[19] = DVS Cycle 1, target 90.0 % P/Po
[20] = DVS Cycle 1, target 95.0 % P/Po

CCOc1cc([C@@H](CS(C)(=O)=O)N2C(=O)c3cccc(NC(C)=O)c3C2=O)ccc1OC [amorphous apremilast, N-[2-[(1S)-1-(3-ethoxy-4-methoxyphenyl)-2-(methylsulfonyl)ethyl]-2,3-dihydro-1,3-dioxo-1H-isoindol-4-yl]acetamide]
Change In Mass (%) - ref, Desorption ([1]; DVS Cycle 1, target 0.0 % P/Po): −0.066%
Change In Mass (%) - ref, Sorption ([1]; DVS Cycle 1, target 0.0 % P/Po): −0.010%
Change In Mass (%) - ref, Desorption ([1]; DVS Cycle 1, target 5.0 % P/Po): 0.138%
Change In Mass (%) - ref, Hysteresis ([1]; DVS Cycle 1, target 5.0 % P/Po): −0.045%
Change In Mass (%) - ref, Sorption ([1]; DVS Cycle 1, target 5.0 % P/Po): 0.183%
Change In Mass (%) - ref, Desorption [1, 3]: 0.308%
Change In Mass (%) - ref, Hysteresis [1, 3]: −0.006%
Change In Mass (%) - ref, Sorption [1, 3]: 0.314%
Change In Mass (%) - ref, Desorption [1, 4]: 0.463%
Change In Mass (%) - ref, Hysteresis [1, 4]: 0.030%
Change In Mass (%) - ref, Sorption [1, 4]: 0.434%
Change In Mass (%) - ref, Desorption [1, 5]: 0.606%
Change In Mass (%) - ref, Hysteresis [1, 5]: 0.066%
Change In Mass (%) - ref, Sorption [1, 5]: 0.540%
Change In Mass (%) - ref, Desorption [1, 6]: 0.740%
Change In Mass (%) - ref, Hysteresis [1, 6]: 0.107%
Change In Mass (%) - ref, Sorption [1, 6]: 0.633%
Change In Mass (%) - ref, Desorption [1, 7]: 0.860%
Change In Mass (%) - ref, Hysteresis [1, 7]: 0.131%
Change In Mass (%) - ref, Sorption [1, 7]: 0.730%
Change In Mass (%) - ref, Desorption [1, 8]: 0.976%
Change In Mass (%) - ref, Hysteresis [1, 8]: 0.155%
Change In Mass (%) - ref, Sorption [1, 8]: 0.821%
Change In Mass (%) - ref, Desorption [1, 9]: 1.090%
Change In Mass (%) - ref, Hysteresis [1, 9]: 0.181%
Change In Mass (%) - ref, Sorption [1, 9]: 0.909%
Change In Mass (%) - ref, Desorption [1, 10]: 1.203%
Change In Mass (%) - ref, Hysteresis [1, 10]: 0.200%
Change In Mass (%) - ref, Sorption [1, 10]: 1.003%
Change In Mass (%) - ref, Desorption [1, 11]: 1.311%
Change In Mass (%) - ref, Hysteresis [1, 11]: 0.224%
Change In Mass (%) - ref, Sorption [1, 11]: 1.087%
Change In Mass (%) - ref, Desorption [1, 12]: 1.411%
Change In Mass (%) - ref, Hysteresis [1, 12]: 0.238%
Change In Mass (%) - ref, Sorption [1, 12]: 1.173%
Change In Mass (%) - ref, Desorption [1, 13]: 1.514%
Change In Mass (%) - ref, Hysteresis [1, 13]: 0.250%
Change In Mass (%) - ref, Sorption [1, 13]: 1.263%
Change In Mass (%) - ref, Desorption [1, 14]: 1.619%
Change In Mass (%) - ref, Hysteresis [1, 14]: 0.258%
Change In Mass (%) - ref, Sorption [1, 14]: 1.360%
Change In Mass (%) - ref, Desorption [1, 15]: 1.730%
Change In Mass (%) - ref, Hysteresis [1, 15]: 0.270%
Change In Mass (%) - ref, Sorption [1, 15]: 1.460%
Change In Mass (%) - ref, Desorption [1, 16]: 1.836%
Change In Mass (%) - ref, Hysteresis [1, 16]: 0.338%
Change In Mass (%) - ref, Sorption [1, 16]: 1.498%
Change In Mass (%) - ref, Desorption [1, 17]: 1.940%
Change In Mass (%) - ref, Hysteresis [1, 17]: 0.306%
Change In Mass (%) - ref, Sorption [1, 17]: 1.634%
Change In Mass (%) - ref, Desorption [1, 18]: 1.972%
Change In Mass (%) - ref, Hysteresis [1, 18]: 0.208%
Change In Mass (%) - ref, Sorption [1, 18]: 1.763%
Change In Mass (%) - ref, Desorption [1, 19]: 1.956%
Change In Mass (%) - ref, Hysteresis [1, 19]: 0.122%
Change In Mass (%) - ref, Sorption [1, 19]: 1.834%
Change In Mass (%) - ref, Desorption [1, 20]: 1.883%
Change In Mass (%) - ref, Sorption [1, 20]: 1.883%
Hygroscopicity Classification ([1]; based on DVS data, criterion at 25 ± 1° C. and 80 ± 2% RH): slightly hygroscopic
physical stability [2]: good physical stability
physical stability ([2]; listed as Apremilast): stable for three months
XRPD Pattern ([2]; Initial): Amorphous

— patent US9994522B2, “Amorphous form of apremilast” (MAPI PHARMA LTD., priority 2014, dated 2018)
